What was measured:
Pim-3 = Pim-3 (Homo sapiens (Human), UniProt Q86V86); experiment: Pim-3 kinase assay (Pim enzyme assays, Example A); assay type: biochemical; settings: 1 mM ATP, BAD peptide substrate; read-out: PIM3 IC50
Pim-1 = Pim-1 (Homo sapiens (Human), UniProt P11309); experiment: Pim-1 kinase assay (Pim enzyme assays, Example A); assay type: biochemical; settings: 1 mM ATP, BAD peptide substrate; read-out: PIM1 IC50
Pim-2 = Pim-2 (Homo sapiens (Human), UniProt Q9P1W9); experiment: Pim-2 kinase assay (Pim enzyme assays, Example A); assay type: biochemical; settings: 1 mM ATP, CREBtide peptide substrate; read-out: PIM2 IC50
pBAD in KMS.12.BM cells = experiment: Pim pBAD signaling assay in KMS.12.BM cells (Example B); assay type: cell-based; settings: Homo sapiens, 2.5 h incubation, pBAD ELISA

Pim-2, sequence (Q9P1W9 whole entry): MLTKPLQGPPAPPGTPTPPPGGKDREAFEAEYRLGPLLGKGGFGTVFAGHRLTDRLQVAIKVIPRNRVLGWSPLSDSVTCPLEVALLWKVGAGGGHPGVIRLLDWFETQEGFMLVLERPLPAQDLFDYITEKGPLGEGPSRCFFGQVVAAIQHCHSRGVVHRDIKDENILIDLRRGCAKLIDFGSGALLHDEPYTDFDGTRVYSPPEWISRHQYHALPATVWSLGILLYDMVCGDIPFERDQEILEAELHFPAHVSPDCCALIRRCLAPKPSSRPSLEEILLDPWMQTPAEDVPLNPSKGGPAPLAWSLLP
Pim-1, sequence (P11309 whole entry): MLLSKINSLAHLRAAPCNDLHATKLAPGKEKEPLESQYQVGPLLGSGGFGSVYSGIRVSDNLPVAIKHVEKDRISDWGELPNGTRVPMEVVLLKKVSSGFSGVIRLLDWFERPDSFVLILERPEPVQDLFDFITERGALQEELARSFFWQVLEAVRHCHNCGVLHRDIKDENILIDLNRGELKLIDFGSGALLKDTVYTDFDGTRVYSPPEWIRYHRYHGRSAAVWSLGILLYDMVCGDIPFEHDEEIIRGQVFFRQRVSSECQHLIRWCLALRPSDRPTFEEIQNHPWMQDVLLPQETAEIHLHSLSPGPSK

SMILES: C[C@H]1CN(c2ccncc2NC(=O)c2ccc3ccc(-c4cccnc4)cc3n2)C[C@@H](N)[C@@H]1O [Example 47, N-(4-((3R,4R,5S)-3-Amino-4-hydroxy-5-methylpiperidin-1-yl)pyridin-3-yl)-7-(pyridin-3-yl)quinoline-2-carboxamide]
- IC50 (Pim-3): ≤ 10 nM
- IC50 (Pim-1): ≤ 10 nM
- IC50 (Pim-2): ≤ 100 nM
- IC50 (pBAD in KMS.12.BM cells): ≤ 50 nM

SMILES: C[C@@H]1C[C@H](N)CN(c2ccncc2NC(=O)c2ccc3ccc(-c4cnn(C)c4)cc3n2)C1 [Example 48, N-{4-[(3S,5R)-3-amino-5-methylpiperidin-1-yl]pyridin-3-yl}-7-(1-methyl-1H-pyrazol-4-yl)quinoline-2-carboxamide]
- IC50 (Pim-3): ≤ 10 nM
- IC50 (Pim-1): ≤ 10 nM
- IC50 (Pim-2): ≤ 100 nM
- IC50 (pBAD in KMS.12.BM cells): ≤ 50 nM

SMILES: C[C@@H]1C[C@H](N)CN(c2ccncc2NC(=O)c2ccc3ccc(-c4ccccc4C#N)cc3n2)C1 [Example 49, N-{4-[(3S,5R)-3-Amino-5-methylpiperidin-1-yl]pyridin-3-yl}-7-(2-cyanophenyl)quinoline-2-carboxamide]
- IC50 (Pim-3): ≤ 10 nM
- IC50 (Pim-1): ≤ 10 nM
- IC50 (Pim-2): ≤ 100 nM
- IC50 (pBAD in KMS.12.BM cells): ≤ 50 nM

SMILES: C[C@@H]1C[C@H](N)CN(c2ccncc2NC(=O)c2ccc3ccc(N4CCC(O)CC4)cc3n2)C1 [Example 50, N-(4-((3S,5R)-3-Amino-5-methylpiperidin-1-yl)pyridin-3-yl)-7-(4-hydroxypiperidin-1-yl)quinoline-2-carboxamide]
- IC50 (Pim-3): ≤ 10 nM
- IC50 (Pim-1): ≤ 10 nM
- IC50 (Pim-2): ≤ 100 nM
- IC50 (pBAD in KMS.12.BM cells): ≤ 50 nM

SMILES: N#Cc1ccccc1-c1cnc2ccc(C(=O)Nc3cnccc3N3C[C@@H](N)C[C@@H](C(F)(F)F)C3)nc2c1 [Example 51, N-{4-[(3S,5R)-3-Amino-5-(trifluoromethyl)piperidin-1-yl]pyridin-3-yl}-7-(2-cyanophenyl)-1,5-naphthyridine-2-carboxamide]
- IC50 (Pim-3): ≤ 10 nM
- IC50 (Pim-1): ≤ 10 nM
- IC50 (Pim-2): ≤ 100 nM
- IC50 (pBAD in KMS.12.BM cells): ≤ 50 nM

SMILES: C[C@H]1CN(c2ccncc2NC(=O)c2ccc3ccc(-c4ccc(OC5CCOCC5)nc4)cc3n2)C[C@@H](N)[C@@H]1O [Example 52, N-{4-[(3R,4R,5S)-3-Amino-4-hydroxy-5-methylpiperidin-1-yl]pyridin-3-yl}-7-[6-(tetrahydro-2H-pyran-4-yloxy)pyridin-3-yl]quinoline-2-carboxamide]
- IC50 (Pim-3): ≤ 10 nM
- IC50 (Pim-1): ≤ 10 nM
- IC50 (Pim-2): ≤ 100 nM
- IC50 (pBAD in KMS.12.BM cells): 50 to 250 nM

— patent US9580418B2, “Bicyclic aromatic carboxamide compounds useful as Pim kinase inhibitors” (Incyte Corporation, priority 2014, dated 2017)
